Results on four molecules are retold here after US4551450A, “Rifamycin hydrazones, pharmaceutical compositions containing them and their use” (Ciba-Geigy Corporation, priority 1984, dated 1985).

Each structure is given as a SMILES string. Values after ≈ are worked out from the molar mass of the structure shown.

One data set is described as follows: Pharmacokinetics in rats. To be noted: for Cmax (highest concentration of the active ingredient in the blood plasma) / Cmax: blood plasma; for Cmax: read-out: Cmax (highest concentration of the active ingredient in the blood plasma). The class given is in vivo. An excerpt: (§1) (5) Half-life period of excretion (in hours).
(§2) (6) Highest concentration of the active ingredient in the blood plasma.

Data set [1] has as its system Mycobacterium tuberculosis TB H3 Rv. Description: Antituberculotic action, in vivo test (mice), administration p.o. More on the design: species or system Mycobacterium tuberculosis; mice. To be noted: in vivo, mice, p.o.; for ED50: Mycobacterium tuberculosis, TBH3RV, po, read-out: Antituberculotic action, ED50. An excerpt:
(§3) (2) Test organism: Mycobacterium tuberculosis TB H3 Rv
(4) In vivo test (mice); administration p.o.

Data set [2] shares this test system. Description: Antituberculotic action, minimum inhibitory concentration in a plate test in vitro. To be noted: M. tuberculosis TB H3 Rv; for Antituberculotic action, MIC (minimum inhibitory concentration): plate test in vitro; for MIC: Mycobacterium tuberculosis, TBH3RV, read-out: Antituberculotic action, MIC (minimum inhibitory concentration), plate test in vitro. The class given is cell-based.
Description: as §3
(3) Minimum inhibitory concentration in a plate test in vitro.

A further data set can be described thus: Pharmacokinetics in mice. The class given is in vivo. As to conditions: for Cmax: plasma, read-out: Cmax (highest concentration of the active ingredient in the blood plasma); for Cmax (highest concentration of the active ingredient in the blood plasma) / Cmax: blood plasma.
Description: as §1, §2

A further data set has as its system tuberculosis infections. To be noted: prior art, U.S. Pat. No. 3,342,810; cited from earlier work.
For data set [3] the following is noted: prior art statement, in some cases; cited from earlier work.

Turning to `COC1C=COC2(C)Oc3c(C)c(O)c4c(O)c(c(C=NN5CC6CCCCN6CC5C)c(O)c4c3C2=O)NC(=O)C(C)=CC=CC(C)C(O)C(C)C(O)C(C)C(OC(C)=O)C1C` (single isomer, unassigned) [Example 5 Isomer B, hydrazone of 3-formylrifamycin SV with 3-amino-2-methylperhydro-1H-pyrido[1,2-a]pyrazine], in “Pharmacokinetics in rats”, the “t/2 (half-life period of excretion)” value was 44.7 h and the “Cmax (highest concentration of the active ingredient in the blood plasma)” value was 16400 ng/mL. Moreover, the “Antituberculotic action, ED50” value in data set [1] (listed as 5 Isomer B) came out at 2 mg/kg. Moreover, the “Antituberculotic action, MIC (minimum inhibitory concentration)” value in data set [2] (listed as 5 Isomer B) is 0.4 µg/mL. In “Pharmacokinetics in mice” (listed as 5 Isomer B), the “Cmax (highest concentration of the active ingredient in the blood plasma)” value amounted to 38800 ng/mL and the “t/2 (half-life period of excretion)” value stood at 66 h.

Take `COC1C=COC2(C)Oc3c(C)c(O)c4c(O)c(c(C=NN5CCN6CCCCC6C5)c(O)c4c3C2=O)NC(=O)C(C)=CC=CC(C)C(O)C(C)C(O)C(C)C(OC(C)=O)C1C` (stereo not drawn) [Example 1]: in “Pharmacokinetics in rats”, the “t/2 (half-life period of excretion)” value is given as 17.0 h and the “Cmax (highest concentration of the active ingredient in the blood plasma)” value worked out at 24500 ng/mL. Also, in data set [1], the “Antituberculotic action, ED50” value came out at 0.8 mg/kg. Also, the “Antituberculotic action, MIC (minimum inhibitory concentration)” value in data set [2] was 0.03 µg/mL. Besides, in “Pharmacokinetics in mice”, the “t/2 (half-life period of excretion)” value was found to be 20 h and the “Cmax (highest concentration of the active ingredient in the blood plasma)” value is 27300 ng/mL.

In the case of `CO[C@H]1/C=C/O[C@@]2(C)Oc3c(C)c(O)c4c(O)c(c(C=NN5CCN6CCCC6C5)c(O)c4c3C2=O)NC(=O)/C(C)=C\C=C\[C@H](C)[C@H](O)[C@@H](C)[C@@H](O)[C@@H](C)[C@H](OC(C)=O)[C@@H]1C` (stereo partly drawn) [Example 2, hydrazone of 3-formylrifamycin SV with 3-aminoperhydropyrrolo[1,2-a]pyrazine], the half-life in “Pharmacokinetics in rats” (rat, in vivo, read-out: t/2 (half-life period of excretion) (converted)) is 13.2 h; in the data set “Pharmacokinetics in mice” (mouse, in vivo, read-out: t/2 (half-life period of excretion) (converted)), 9.1 h. Also, the Cmax is 11600 ng/mL in “Pharmacokinetics in rats” (rat, plasma) and 57700 ng/mL in the data set “Pharmacokinetics in mice” (mouse). Besides, the ED50 in data set [1] amounted to 2.5 mg/kg. The MIC in data set [2] worked out at 0.1 µg/mL (≈ 0.118 µM).

Regarding `CO[C@H]1/C=C/O[C@@]2(C)Oc3c(C)c(O)c4c(O)c(c(/C=N/N5CCN(C)CC5)c(O)c4c3C2=O)NC(=O)/C(C)=C\C=C\[C@H](C)[C@H](O)[C@@H](C)[C@@H](O)[C@@H](C)[C@H](OC(C)=O)[C@@H]1C` [Rifampicin, hydrazone of 3-formylrifamycin SV with 1-amino-4-methylpiperazine, reference compound], in the data set with tuberculosis infections, the antituberculotic activity result is given as “excellent antituberculotic activity”. The results for the Cmax in “Pharmacokinetics in rats” (rat) and in the data set “Pharmacokinetics in mice” (mouse) were 13900 ng/mL and 24800 ng/mL, respectively. Moreover, in data set [3], the “dwell time in the organism” value is “relatively short dwell time in the organism”. Besides, the ED50 in data set [1] was found to be 5.9 mg/kg. The MIC in data set [2] turned out to be 0.03 µg/mL (≈ 0.0365 µM).

What is called ED50 is the dose at which the effect has come halfway, by size or by number of responders.
